From ChEMBL document CHEMBL5316269, “Rational Design of a New RXR Agonist Scaffold Enabling Single-Subtype Preference for RXRα, RXRβ, and RXRγ” (J Med Chem, 2023)

Legend:
[1] = biological target: T1, Retinoic acid receptor RXR-alpha (Homo sapiens, UniProt P19793); assay: Agonist activity at human GAL4-fused RXRalpha LBD expressed in human HEK293T cells cotransfected with pFR-Luc and pRL-SV40 assessed as increase in luciferase activity incubated for 16 hrs by Dual-Glo luciferase assay; format: cell-based
T1 sequence (P19793 whole entry): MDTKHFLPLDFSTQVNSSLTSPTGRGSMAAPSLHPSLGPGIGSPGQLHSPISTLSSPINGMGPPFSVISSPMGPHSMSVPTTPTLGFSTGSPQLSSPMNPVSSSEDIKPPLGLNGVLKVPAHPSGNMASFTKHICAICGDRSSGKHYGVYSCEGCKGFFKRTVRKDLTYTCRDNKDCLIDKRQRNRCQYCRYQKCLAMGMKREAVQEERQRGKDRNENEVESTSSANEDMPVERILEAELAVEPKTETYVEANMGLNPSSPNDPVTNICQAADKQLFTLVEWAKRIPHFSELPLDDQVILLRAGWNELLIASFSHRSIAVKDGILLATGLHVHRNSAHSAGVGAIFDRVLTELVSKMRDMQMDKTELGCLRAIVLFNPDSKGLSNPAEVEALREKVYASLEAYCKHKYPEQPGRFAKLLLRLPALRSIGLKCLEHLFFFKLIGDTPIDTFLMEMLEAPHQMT

[2] = biological target: T2, Retinoic acid receptor RXR-gamma (Homo sapiens, UniProt P48443); assay: Agonist activity at human GAL4-fused RXRgamma LBD expressed in human HEK293T cells cotransfected with pFR-Luc and pRL-SV40 assessed as increase in luciferase activity incubated for 16 hrs by Dual-Glo luciferase assay; format: cell-based
T2 sequence (P48443 whole entry): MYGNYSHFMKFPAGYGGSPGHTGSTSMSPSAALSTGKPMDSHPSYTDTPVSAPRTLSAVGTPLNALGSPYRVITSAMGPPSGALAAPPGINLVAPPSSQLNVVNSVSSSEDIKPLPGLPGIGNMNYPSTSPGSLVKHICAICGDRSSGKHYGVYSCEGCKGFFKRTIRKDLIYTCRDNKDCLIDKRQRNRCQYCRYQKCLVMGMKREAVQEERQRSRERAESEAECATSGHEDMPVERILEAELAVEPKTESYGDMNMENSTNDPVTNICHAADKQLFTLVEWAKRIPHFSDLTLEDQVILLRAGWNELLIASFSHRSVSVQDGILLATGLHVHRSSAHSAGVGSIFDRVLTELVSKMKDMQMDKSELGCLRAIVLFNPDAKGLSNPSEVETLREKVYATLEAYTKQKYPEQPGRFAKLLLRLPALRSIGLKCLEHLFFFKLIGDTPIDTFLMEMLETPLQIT

[3] = biological target: T3, Retinoic acid receptor RXR-beta (Homo sapiens, UniProt P28702); assay: Agonist activity at human GAL4-fused RXRbeta LBD expressed in human HEK293T cells cotransfected with pFR-Luc and pRL-SV40 assessed as increase in luciferase activity incubated for 16 hrs by Dual-Glo luciferase assay; format: cell-based
T3 sequence (P28702 whole entry): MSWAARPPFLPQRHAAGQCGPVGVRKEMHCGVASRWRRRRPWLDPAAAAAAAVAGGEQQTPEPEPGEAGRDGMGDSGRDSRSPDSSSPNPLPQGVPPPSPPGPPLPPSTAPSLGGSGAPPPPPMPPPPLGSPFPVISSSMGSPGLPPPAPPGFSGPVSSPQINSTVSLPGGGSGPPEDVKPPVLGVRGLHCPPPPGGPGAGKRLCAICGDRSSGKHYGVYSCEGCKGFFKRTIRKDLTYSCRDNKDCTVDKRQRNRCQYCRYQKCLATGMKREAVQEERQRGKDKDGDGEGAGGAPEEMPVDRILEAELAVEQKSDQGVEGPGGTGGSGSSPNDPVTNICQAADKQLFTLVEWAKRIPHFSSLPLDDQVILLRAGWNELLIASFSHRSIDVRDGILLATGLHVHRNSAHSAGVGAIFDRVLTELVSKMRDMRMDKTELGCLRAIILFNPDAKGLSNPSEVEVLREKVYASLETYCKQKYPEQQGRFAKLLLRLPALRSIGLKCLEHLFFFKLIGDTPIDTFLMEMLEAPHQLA

HEK-293T [4] = assay: Cytotoxicity in human HEK293T cells coexpressing GAL4-fused RXRalpha LBD, pFR-Luc and pRL-SV40 assessed as reduction in cell viability at > 10 uM incubated for 16 hrs by Dual-Glo luciferase assay; format: toxicity, cell-based
HEK-293T [5] = assay: Cytotoxicity in human HEK293T cells coexpressing GAL4-fused RXRbeta LBD, pFR-Luc and pRL-SV40 assessed as reduction in cell viability at > 10 uM incubated for 16 hrs by Dual-Glo luciferase assay; format: toxicity, cell-based
HEK-293T [6] = assay: Cytotoxicity in human HEK293T cells coexpressing GAL4-fused RXRgamma LBD, pFR-Luc and pRL-SV40 assessed as reduction in cell viability at > 10 uM incubated for 16 hrs by Dual-Glo luciferase assay; format: toxicity, cell-based
PXR (NR1I2) [7] = biological target: T4, PXR (NR1I2) (Homo sapiens, UniProt O75469); assay: Agonist activity at human GAL4-fused PXR LBD expressed in human HEK293T cells cotransfected with pFR-Luc and pRL-SV40 assessed as increase in luciferase activity at 1 uM incubated for 16 hrs by Dual-Glo luciferase assay relative to control; format: cell-based; conditions: HEK293T cells expressing GAL4-fused PXR LBD, read-out: Activity
T4 sequence (O75469 whole entry): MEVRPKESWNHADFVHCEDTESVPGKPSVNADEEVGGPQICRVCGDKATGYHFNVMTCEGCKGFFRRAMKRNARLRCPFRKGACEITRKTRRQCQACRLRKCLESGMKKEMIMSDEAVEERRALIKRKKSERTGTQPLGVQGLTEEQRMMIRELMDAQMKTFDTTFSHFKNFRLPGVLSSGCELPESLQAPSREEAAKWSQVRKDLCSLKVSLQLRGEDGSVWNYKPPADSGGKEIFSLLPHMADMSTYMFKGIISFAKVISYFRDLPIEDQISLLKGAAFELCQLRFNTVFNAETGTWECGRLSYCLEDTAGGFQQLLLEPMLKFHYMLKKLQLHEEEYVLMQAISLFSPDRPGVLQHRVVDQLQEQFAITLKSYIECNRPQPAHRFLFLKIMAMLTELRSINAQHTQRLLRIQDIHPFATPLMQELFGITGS

CAR (NR1I3) [8] = biological target: T5, CAR (NR1I3) (Homo sapiens, UniProt Q14994); assay: Agonist activity at human GAL4-fused CAR LBD expressed in human HEK293T cells cotransfected with pFR-Luc and pRL-SV40 assessed as increase in luciferase activity at 1 uM incubated for 16 hrs by Dual-Glo luciferase assay relative to control; format: cell-based; conditions: HEK293T cells expressing GAL4-fused CAR LBD, read-out: Activity
T5 sequence (Q14994 whole entry): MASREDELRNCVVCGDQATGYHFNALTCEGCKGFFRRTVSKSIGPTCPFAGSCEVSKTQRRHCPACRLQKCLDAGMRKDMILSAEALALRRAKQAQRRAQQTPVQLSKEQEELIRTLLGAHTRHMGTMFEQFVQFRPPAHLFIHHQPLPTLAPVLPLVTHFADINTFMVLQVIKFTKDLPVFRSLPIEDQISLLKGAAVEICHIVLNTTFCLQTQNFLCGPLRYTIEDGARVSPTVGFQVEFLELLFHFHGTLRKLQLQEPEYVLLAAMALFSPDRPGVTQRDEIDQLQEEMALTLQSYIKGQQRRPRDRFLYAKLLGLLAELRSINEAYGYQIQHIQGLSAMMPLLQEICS

[9] = biological target: T1, Retinoic acid receptor RXR-alpha; assay: Binding affinity to human RXRalpha LBD and measured for 180 sec by ITC analysis
PXR (NR1I2) [10] = biological target: T4, PXR (NR1I2); assay: Agonist activity at human GAL4-fused PXR LBD expressed in human HEK293T cells cotransfected with pFR-Luc and pRL-SV40 assessed as increase in luciferase activity at 30 uM incubated for 16 hrs by Dual-Glo luciferase assay relative to control; format: cell-based; conditions: HEK293T cells expressing GAL4-fused PXR LBD, read-out: Activity
CAR (NR1I3) [11] = biological target: T5, CAR (NR1I3); assay: Agonist activity at human GAL4-fused CAR LBD expressed in human HEK293T cells cotransfected with pFR-Luc and pRL-SV40 assessed as increase in luciferase activity at 30 uM incubated for 16 hrs by Dual-Glo luciferase assay relative to control; format: cell-based; conditions: HEK293T cells expressing GAL4-fused CAR LBD, read-out: Activity
[12] = biological target: T2, Retinoic acid receptor RXR-gamma; assay: Binding affinity to human RXRgamma LBD and measured for 180 sec by ITC analysis

Row | Compound | EC50 [1] | EC50 [2] | EC50 [3] | further results
1 | O=C(O)c1cccc(COc2cccc3c2CCC3)c1 | 7 µM |  |  | 
2 | Cc1ccc(COc2ccc(C)c3c2CCC3)cc1CC(=O)O |  |  |  | Activity (HEK-293T [4]): Toxic; Activity (HEK-293T [5]): Toxic; Activity (HEK-293T [6]): Toxic
3 | Cc1ccc(COc2cccc3c2CCC3)cc1CC(=O)O |  |  |  | Activity (HEK-293T [4]): Toxic; Activity (HEK-293T [5]): Toxic; Activity (HEK-293T [6]): Toxic
4 | Cc1cc(COc2cccc3c2CCC3)ccc1CC(=O)O | 43 µM |  | 43 µM | 
5 | O=C(O)CCc1ccc(COc2cccc3c2CCC3)cc1 | 0.6 µM | 2.6 µM |  | 
6 | O=C(O)c1ccc(COc2cccc3c2CCC3)cc1F | 0.8 µM |  |  | 
7 | O=C(O)c1ccc(CNc2cccc3c2CCC3)cc1 | 3.1 µM | 13 µM |  | 
8 | O=C(O)CCc1ccc(COc2cccc3c2CCC3)cc1F | 2.2 µM | 11 µM | 2.8 µM | 
9 | CC1=C2[C@H](/C=C(\C)C(=O)O)CC[C@@H](C)[C@H]2CC1 [VALERENIC ACID] |  |  | 5 µM | 

Continued, in another order:

Row | EC50 [1] | EC50 [2] | EC50 [3] | Compound | further results
10 |  | 5 µM |  | Cc1ccc(OCc2ccc(C(=O)O)cc2)c2c1CCC2 | 
11 |  | 11 µM | 2.9 µM | Cc1ccc(OCc2ccc(C(=O)O)c(F)c2)c2c1CCC2 | 
12 |  |  | 1.1 µM | Cc1ccc(OCc2ccc(CCC(=O)O)cc2)c2c1CCC2 | 
13 | 1.2 µM |  | 1.5 µM | O=C(O)c1ccc(COc2cccc3c2CCC3)cc1 | 
14 | 2.4 µM |  | 2.5 µM | Cc1ccc(OCc2ccc(CC(=O)O)cc2)c2c1CCC2 | 
15 | 23 µM |  |  | Cc1cc(COc2cccc3c2CCC3)ccc1C(=O)O | 
16 | 0.36 µM |  |  | Cc1cc(COc2ccc(C)c3c2CCC3)ccc1CCC(=O)O | activity at 16 h, 1 µM (PXR (NR1I2) [7]): 12%; activity at 16 h, 1 µM (CAR (NR1I3) [8]): 6%; Kd [9]: 0.2 µM
17 | 4.1 µM | 14 µM |  | CN(Cc1ccc(C(=O)O)cc1)c1cccc2c1CCC2 | 
18 | 7 µM | 10.6 µM | 8 µM | Cc1ccc(OCc2ccc(CCC(=O)O)c(Cl)c2)c2c1CCC2 | 
19 |  | 14 µM |  | Cc1ccc(OCc2ccc(CCC(=O)O)c(F)c2)c2c1CCC2 | activity at 16 h, 30 µM (PXR (NR1I2) [10]): 15%; activity at 16 h, 30 µM (CAR (NR1I3) [11]): 9%; Kd [12]: 6 µM
